Test results from patent publication US20240400560A1, “BICYCLIC HETEROCYCLIC DERIVATIVE HAVING VIRAL GROWTH INHIBITORY ACTIVITY AND PHARMACEUTICAL COMPOSITION CONTAINING SAME” (Shionogi & Co., Ltd., priority 2021, published 2024).

How the values were obtained:
SARS-CoV-2 = experiment: Inhibitory activity of cytopathic effect (CPE) in Vero E6/TMPRSS2 cells; type: cell-based
SARS-CoV-2 3CL protease = SARS-CoV-2 3CL protease (Severe acute respiratory syndrome coronavirus 2, UniProt P0DTD1); experiment: Inhibitory activity test against SARS-CoV-2 3CL proteases; type: biochemical; conditions: read-out: IC50 (50% SARS-CoV-2 3CL protease inhibitory concentration)
[1] = Severe acute respiratory syndrome coronavirus 2, VeroE6/TMPRSS2, 50% SARS-CoV-2 infected cell death inhibitory concentration, class symbols
[2] = Severe acute respiratory syndrome coronavirus 2, VeroE6/TMPRSS2, 72 h, 50% SARS-CoV-2 infected cell death inhibitory concentration, CellTiter-Glo 2.0 after 3 days culture

SMILES | EC50 (SARS-CoV-2; [1]) | IC50 (SARS-CoV-2 3CL protease) | EC50 (SARS-CoV-2; [2])
COc1cc(-c2cc3cn[nH]c3cc2Cl)cc2c1c(=O)n(-c1cncc(C)c1)c(=O)n2Cc1cc(C#N)ccc1Cl [Compound I-0170] | < 1000 nM | < 100 nM | 
COc1cc(-c2cc(C(=O)NCCN(C)C)ccc2Cl)cc2c1c(=O)n(-c1cncc(C)c1)c(=O)n2Cc1ccc(F)c(C#N)c1 [Compound I-0190] | 1000 to 10000 nM | < 100 nM | 
COc1cc(-c2cc(C(=O)NCCO)ccc2Cl)cc2c1c(=O)n(-c1cncc(C)c1)c(=O)n2Cc1ccc(F)c(C#N)c1 [Compound I-0194] | 1000 to 10000 nM | < 100 nM | 
COCCNC(=O)c1ccc(Cl)c(-c2cc(OC)c3c(=O)n(-c4cncc(C)c4)c(=O)n(Cc4ccc(F)c(C#N)c4)c3c2)c1 [Compound I-0195] | 1000 to 10000 nM | < 100 nM | 
COc1cc(-c2cc(C(=O)N(C)C)ccc2Cl)cc2c1c(=O)n(-c1cncc(C)c1)c(=O)n2Cc1ccc(F)c(C#N)c1 [Compound I-0200] | 1000 to 10000 nM | < 100 nM | 
COc1cc(-c2cc(C(=O)N3CCN(C)CC3)ccc2Cl)cc2c1c(=O)n(-c1cncc(C)c1)c(=O)n2Cc1ccc(F)c(C#N)c1 [Compound I-0208] | 1000 to 10000 nM | < 100 nM | 
COc1cc(-c2cc3c(cc2Cl)NC(=O)C3)cc2c1c(=O)n(Cc1ncn(C)n1)c(=O)n2Cc1cc(F)c(F)c(Cl)c1 [Compound I-0263] |  | 0.99 nM | 736 nM
COc1cc(-c2cc3cn[nH]c3cc2Cl)cc2c1c(=O)n(Cc1ncn(C)n1)c(=O)n2Cc1cc(F)c(F)c(Cl)c1 [Compound I-0264] |  | 2.6 nM | 349 nM
COc1cc(-c2cc3c(cc2Cl)NC(=O)C3)cc2c1c(=O)n(Cc1ncn(C)n1)c(=O)n2Cc1cc(Cl)c(F)cc1F [Compound I-0266] | < 1000 nM | < 100 nM | 
COc1cc(-c2cc3c(cc2Cl)NC(=O)C3)cc2c1c(=O)n(Cc1ncn(C)n1)c(=O)n2Cc1cc(F)c(F)cc1F [Compound I-0273] | 1000 to 10000 nM | < 100 nM | 
Cn1cnc(Cn2c(=O)c3c(F)cc(-c4cc5c(cc4Cl)NC(=O)C5)cc3n(Cc3cc(F)c(F)cc3F)c2=O)n1 [Compound I-0280] | 1000 to 10000 nM | < 100 nM | 
CC(=O)c1ccc(Cl)c(-c2ccc3c(=O)n(Cc4ccc[nH]c4=O)c(=O)n(Cc4cc(F)c(F)c(F)c4)c3c2)c1 [Compound I-0284] | 1000 to 10000 nM | < 100 nM | 
CNC(=O)c1ccc(Cl)c(-c2ccc3c(=O)n(Cc4ccc[nH]c4=O)c(=O)n(Cc4cc(F)c(F)c(F)c4)c3c2)c1 [Compound I-0285] | 1000 to 10000 nM | < 100 nM | 
CCOc1cc(-c2cc(C#N)ccc2Cl)cc2c1c(=O)n(-c1cncc(C)c1)c(=O)n2Cc1ccc(F)c(C#N)c1 [Compound I-0295] |  | 15 nM | 426 nM
O=c1[nH]cccc1Cn1c(=O)c2ccc3ccccc3c2n(Cc2cc(F)c(F)c(F)c2)c1=O [Compound I-0315] |  | 350 nM | 411 nM
